Measurements: US20260240925A1, “METHOD AND COMPOSITION FOR PREVENTING OR TREATING MYOPIA” (Tsubota Laboratory, Inc., priority 2022, published 2026)

Legend:
Type in all cases: in vivo, mouse
[1] = test system: lens-induced myopia model mice; assay: Test Example 3: mast cell stabilizer instillation in lens-induced myopia model; conditions: for progression of myopia: ocular instillation, minus-lens-induced myopia mouse model; for choroidal thinning (change in choroidal thickness) / myopic shift in refraction (change in refractive value) / ocular elongation (change in axial length): once daily ocular instillation, 3 weeks myopia induction, cromolyn 4% solution, pemirolast potassium 0.1% solution, vs PBS group
Experimental: (§1) The axial length, choroidal thickness, and refractivity of the mice in each group were measured. The axial length and the choroidal thickness were measured using spectral domain optical coherence tomography (Envisu R4310, manufactured by Leica). The refractivity was measured using an infrared photorefractor for mice (made by Professor Schaeffel, University of Tubingen).
To verify the inhibitory effect of mast cell stabilizer instillation on myopia progression, a lens-induced myopia model was employed, wherein myopia was induced in mice by fitting the mice with minus lenses. During the myopia induction period, either cromolyn solution (4% solution) or pemirolast potassium (0.1% solution) was administered once daily by means of ocular instillation.
Following the test method described above, the axial length, refractive value, and choroidal thickness were measured in mice that underwent myopia induction for 3 weeks and ocular instillation of cromolyn solution or pemirolast potassium solution, as well as in control mice, and the amounts of changes therein were calculated (FIG. 7A, B, and C).

[2] = test system: mice with LIM-induced myopia; assay: Test Example 4: mast cell stabilizer vs histamine receptor antagonist instillation in mice with LIM-induced myopia; conditions: for choroidal thinning (change in choroidal thickness) / myopic shift in refraction (change in refractive value) / ocular elongation (change in axial length): eye drops, pemirolast potassium 0.1% solution, levocabastine 0.025% solution, vs control group
Experimental: as §1
Anti-allergic drugs are broadly divided into two types: mast cell stabilizers, which inhibit mast cell degranulation, and histamine receptor inhibitors, which inhibit the action of histamine secreted due to mast cell degranulation. In order to clarify whether the myopia suppression effect of the mast cell stabilizer instillation in Test Example 3 was due to the action of the anti-allergic drug or to the inhibition of mast cell degranulation, pemirolast potassium (0.1% solution) and levocabastine solution (0.025% solution) were administered as eye drops, respectively as a mast cell stabilizer and a histamine receptor inhibitor, to mice with LIM-induced myopia, and the myopia-suppressing effects were compared.

C57BL6J mice = assay: Myopia suppression by IL-13 administration during the myopia induction period (minus lens); conditions: IL-13 during the myopia induction period
Experimental: as §1
Changes in blood flow were measured using swept-source optical coherence tomography (OCT S-1, Canon).

choroidal macrophages = assay: M2 macrophage polarization in the choroid after IL-13 administration, flow cytometry; conditions: IL-13 during the myopia induction period
Experimental: The number of macrophages was measured using a flow cytometer (CytoFLEX S, Beckman Coulter) after digestion of the choroid and staining with F4/80 antibody and CD11b antibody. The number of M2 macrophages was measured in the same manner as for the measurement of the number of macrophages, except for the addition of a staining process with CD206 antibody.

[3] = test system: C57BL6 mice undergoing myopia induction; assay: Myopia suppression by IL-4 administration in mice undergoing myopia induction (-30 D lens); conditions: IL-4 10 μg/kg BW intraperitoneally for 3 weeks
Experimental: as §1
Additionally, IL-4 was administered to mice undergoing myopia induction to evaluate whether there is a myopia suppression effect (FIG. 4).
C57BL6 mice undergoing myopia induction (−30 D lens, n=4) were intraperitoneally administered 0.1 μg/100 μl (10 μg/kg BW) of IL-4 solution for 3 weeks. C57BL6J mice undergoing myopia induction (0 D lens, −30 D lens, n=4 per group) were used as control groups.

[4] = test system: M2 macrophage markers CD163 and CD206; assay: M2 macrophage polarization in the choroid after IL-4 administration (Western blot, real-time PCR); conditions: IL-4 10 μg/kg BW intraperitoneally
Experimental: Therefore, IL-4, which is a cytokine necessary for M2 macrophage polarization, was administered to mice, and whether M2 polarization would occur in the choroid was evaluated by means of analyzing the expression levels of M2 macrophage markers CD163 and CD206 (FIG. 3A and B).
C57BL6J mice (n=4 per group) were intraperitoneally administered 0.1 μg/100 μl (10 μg/kg BW) of IL-4 solution. Choroid, retina, and liver samples were taken at 0 hours (before administration) as well as 4, 24, and 48 hours after administration, and the expression of M2 macrophage marker genes was analyzed by Western blot and real-time PCR (FIG. 3). In addition, choroid and retina samples were collected at 0 hours (before administration) as well as 4 and 24 hours after administration, and the expression of oxidative-stress-related genes was analyzed by real-time PCR (FIG. 4).

Molecule: O=C(O)c1cc(=O)c2c(OCC(O)COc3cccc4oc(C(=O)O)cc(=O)c34)cccc2o1 [cromolyn, cromolyn sodium]
- progression of myopia [1]: suppression
- choroidal thinning (change in choroidal thickness) [1]: not observed
- myopic shift in refraction (change in refractive value) [1]: not observed
- ocular elongation (change in axial length) [1]: not observed

Molecule: C[C@@H]1CN([C@H]2CC[C@](C#N)(c3ccc(F)cc3)CC2)CC[C@]1(C(=O)O)c1ccccc1 [levocabastine]
- choroidal thinning (change in choroidal thickness) [2]: observed
- myopic shift in refraction (change in refractive value) [2]: observed
- ocular elongation (change in axial length) [2]: observed
- progression of myopia ([2]; ocular instillation, mice undergoing myopia induction by fitting a minus lens): not suppressed

Molecule: Cc1cccn2c(=O)c(-c3nnn[nH]3)cnc12 [pemirolast potassium]
- choroidal thinning (change in choroidal thickness) [2]: not observed
- myopic shift in refraction (change in refractive value) [2]: not observed
- ocular elongation (change in axial length) [2]: not observed
- progression of myopia [1]: suppression
- choroidal thinning (change in choroidal thickness) [1]: not observed
- myopic shift in refraction (change in refractive value) [1]: not observed
- ocular elongation (change in axial length) [1]: not observed

Molecule: IL-13: a cytokine that causes M2 polarization of macrophages
- choroidal thinning (C57BL6J mice): suppressed
- minus-lens-induced ocular elongation (C57BL6J mice): suppressed
- myopic shift in refraction (C57BL6J mice): suppressed
- M2 macrophage polarization (choroidal macrophages): induced

B1: IL-4: a cytokine necessary for M2 macrophage polarization (protein, UniProt P05112 25-153, looked up)
Interleukin-4: HKCDITLQEIIKTLNSLTEQKTLCTELTVTDIFAASKNTTEKETFCRAATVLRQFYSHHEKDTRCLGATAQQFHRHKQLIRFLKRLDRNLWGLAGLNSCPVKEANQSTLENFLERLKTIMREKYSKCSS
- choroidal thinning [3]: suppresses
- ocular elongation [3]: suppresses
- refractive loss [3]: suppresses
- expression of M2 markers CD163 and CD206 in the choroid ([4]; 0, 4, 24, 48 hours): increased the expression
- M2 macrophage polarization ([4]; choroid): confirmed
- expression of oxidative-stress-related genes ([4]; choroid and retina, 0, 4, 24 hours, real-time PCR): suppressed expression
- expression of M2 macrophage marker genes ([4]; gene expression analysis): increased expression
